This is an account of results in patent US12180193B2, “Accelerating fibrosarcoma protein degrading compounds and associated methods of use” (Arvinas Operations, Inc., priority 2020, dated 2024).

One test has as its target T1, BRAF V600E (Homo sapiens, UniProt P15056, V600E).
T1 construct: expressed in transfected cells
Kind of test: Cellular assay of target protein degradation, T-Rex 293 cells stably transfected with HA-BRAF_V600E (HA immunofluorescence, high content imaging). The format is cell-based. To be noted: T-Rex 293 HA-BRAF V600E; for DC50: half maximal degradation, read-out: BRaf V600E DC50; for Dmax: maximum degradation observed. How it is done:
Protocol for a cellular assay of target protein degradation (T-Rex 293 cells). T-Rex 293 cells were purchased from Invitrogen (#R71007), and stably transfected with a pcDNA4/TO_HA-BRAF_V600E construct, using 400 ug Zeocin for selection. V600e cells are plated in Dulbecco's Modified Eagle Medium (DMEM; Gibco #11965118) containing 10% fetal bovine serum (FBS; Gibco #16000044) and 1 ng/mL doxycycline (Selleckchem #4163) at a density of 5,000 cells/well in 50 μl on poly-D-lysine (PDL) coated, black clear bottom 96-well plates (Corning #354640) and incubated for 24 hours at 37° C. with 5% C02. The following day 50 ul of tested compound was added at 2x concentration in DMEM with a final concentration ranging from 1 μM to 0.1 nM in 0.1% dimethylsulfoxide (DMSO), and incubated for 24 hours at 37° C. with 5% CO2. At the end of the experimental treatment, the media was flicked off and cells washed once with phosphate-buffered saline (PBS)++ (PBS with CaCl and MgCl) and gently replacing with 200 μl PBS++ per well. The PBS++ was removed and 50 uL 4% paraformaldehyde (PFA; EMS #15710) in PBS++ was added, and incubate at room temperature for 15 minutes. Cells were washed once with PBS++ and 50 uL 0.1% Triton X-100 (Fisher #BP151-500) in PBS++ was added. Plate was incubate for 5 minutes at room temperature. Cells were was once with PBS++. Cells were blocked with 100 uL Licor blocking buffer (Licor #927-50000) for 1 hour at room temperature. Next, 50 uL of HA antibody (CST #3724) at 1:1000 in Licor blocking buffer was added, and the plate incubate overnight at 4° C. The plates were parafilmed to prevent evaporation. Plate was washed three times with 200 uL PBS++. Fifty microliters of HCS secondary antibody solution [1:1000 Hoechst (Invitrogen #H3570), 1:1000 phalloidin (Invitrogen #A22287) and 1:5000 Alexa fluor (Invitrogen #A11008)] was added and incubated for 1 hour. Plate was wash three times with 200 uL PBS++, and imaged on a high content reader (ImageXpress Micro XLS, Molecular Devices).
(§1) The concentration of exemplary compound that leads to half maximal degradation (DC50) as well as the maximum degradation observed (Dmax, conventionally expressed as a percentage of control), which are below in Table 2 for the exemplary compounds of Table 1.

The next test concerns the target T2, BRAF G466V (Homo sapiens, UniProt P15056, G466V).
T2 construct: expressed in transfected cells
The test can be described thus: Cellular assay of target protein degradation, T-Rex 293 cells stably transfected with HA-BRAF G466V (HA immunofluorescence, high content imaging). To be noted: T-Rex 293 HA-BRAF G466V; for DC50: half maximal degradation, read-out: BRaf G466V DC50; for Dmax: maximum degradation observed. The format is cell-based. How it is done:
Protocol for a cellular assay of target protein degradation (T-Rex 293 cells). T-Rex 293 cells were purchased from Invitrogen (#R71007), and stably transfected with a pcDNA4/TO_HA-BRAF G466V construct, using 400 ug Zeocin for selection. G466V cells are plated in Dulbecco's Modified Eagle Medium (DMEM; Gibco #11965118) containing 10% fetal bovine serum (FBS; Gibco #16000044) and 0.75 ng/mL doxycycline (Selleckchem #4163) at a density of 5,000 cells/well in 50 μl on poly-D-lysine (PDL) coated, black clear bottom 96-well plates (Corning #354640) and incubated for 24 hours at 37° C. with 5% CO2. The following day 50 ul of tested compound was added at 2x concentration in DMEM with a final concentration ranging from 30 nM to 3 pM in 0.1% dimethylsulfoxide (DMSO), and incubated for 24 hours at 37° C. with 5% CO2. At the end of the experimental treatment, the media was flicked off and cells washed once with phosphate-buffered saline (PBS)++ (PBS with CaCl and MgCl) and gently replacing with 200 μl PBS++ per well. The PBS++ was removed and 50 uL 4% paraformaldehyde (PFA; EMS #15710) in PBS++ was added, and incubate at room temperature for 15 minutes. Cells were washed once with PBS++ and 50 uL 0.1% Triton X-100 (Fisher #BP151-500) in PBS++ was added. Plate was incubate for 5 minutes at room temperature. Cells were was once with PBS++. Cells were blocked with 100 uL Licor blocking buffer (Licor #927-50000) for 1 hour at room temperature. Next, 50 uL of HA antibody (CST #3724) at 1:1000 in Licor blocking buffer was added, and the plate incubate overnight at 4° C. The plates were parafilmed to prevent evaporation. Plate was washed three times with 200 uL PBS++. Fifty microliters of HCS secondary antibody solution [1:1000 Hoechst (Invitrogen #H3570), 1:1000 phalloidin (Invitrogen #A22287) and 1:5000 Alexa fluor (Invitrogen #A11008)] was added and incubated for 1 hour. Plate was wash three times with 200 uL PBS++, and imaged on a high content reader (ImageXpress Micro XLS, Molecular Devices).
as §1

Some results are limits rather than exact numbers.

T1 sequence (P15056 whole entry V600E): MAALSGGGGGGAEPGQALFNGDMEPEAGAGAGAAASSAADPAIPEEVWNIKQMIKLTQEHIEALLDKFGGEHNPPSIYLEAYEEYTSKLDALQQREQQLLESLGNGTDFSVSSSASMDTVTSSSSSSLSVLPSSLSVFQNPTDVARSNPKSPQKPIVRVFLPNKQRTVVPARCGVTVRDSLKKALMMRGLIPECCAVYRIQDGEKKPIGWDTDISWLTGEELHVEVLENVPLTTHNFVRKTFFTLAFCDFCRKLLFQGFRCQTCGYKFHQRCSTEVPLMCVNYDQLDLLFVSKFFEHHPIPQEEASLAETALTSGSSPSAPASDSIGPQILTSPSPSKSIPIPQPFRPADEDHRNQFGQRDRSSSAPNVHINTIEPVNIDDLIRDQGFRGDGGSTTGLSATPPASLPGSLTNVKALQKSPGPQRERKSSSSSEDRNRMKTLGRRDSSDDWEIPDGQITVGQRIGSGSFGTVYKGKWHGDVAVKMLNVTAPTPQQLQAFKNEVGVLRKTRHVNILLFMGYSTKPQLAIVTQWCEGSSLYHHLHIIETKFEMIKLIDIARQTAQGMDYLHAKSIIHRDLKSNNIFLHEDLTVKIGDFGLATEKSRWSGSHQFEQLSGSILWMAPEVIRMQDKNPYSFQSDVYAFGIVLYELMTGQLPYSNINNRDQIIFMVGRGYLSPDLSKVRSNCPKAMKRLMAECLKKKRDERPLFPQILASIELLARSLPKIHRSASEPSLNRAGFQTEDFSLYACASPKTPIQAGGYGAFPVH
T2 sequence (P15056 whole entry G466V): as the sequence (P15056 whole entry V600E) above, with G466V, E600V counted along it

Turning to `O=C1CCC(N2Cc3cc(N4CC5(CC(CN6CCc7cc(-c8cnc9[nH]cc(C(=O)c%10c(F)ccc(NS(=O)(=O)N%11CC[C@@H](F)C%11)c%10F)c9c8)ccc7C6)C5)C4)ccc3C2=O)C(=O)N1` (stereo partly drawn) [Compound 8, (3R)-N-(3-{5-[2-({2-[2-(2,6-dioxopiperidin-3-yl)-1-oxo-2,3-dihydro-1H-isoindol-5-yl]-2-azaspiro[3.3]heptan-6-yl}methyl)-1,2,3,4-tetrahydroisoquinolin-6-yl]-1H-pyrrolo[2,3-b]pyridine-3-carbonyl}-2,4-difluorophenyl)-3-fluoropyrrolidine-1-sulfonamide], the results for the DC50 at BRAF V600E and at BRAF G466V were 0.005 to 0.05 µM and 0.01 to 0.03 µM, respectively. The maximal degradation (Dmax) at BRAF V600E and at BRAF G466V was 35 to 70% in each case.

On to `O=C1CCC(N2Cc3cc(N4CCC5(CCN(CCc6ccc(-c7cnc8[nH]cc(C(=O)c9c(F)ccc(NS(=O)(=O)N%10CC[C@@H](F)C%10)c9F)c8c7)cc6)CC5)C4)ccc3C2=O)C(=O)N1` (stereo partly drawn) [Compound 10, (3R)-N-(3-{5-[4-(2-{2-[2-(2,6-dioxopiperidin-3-yl)-1-oxo-2,3-dihydro-1H-isoindol-5-yl]-2,8-diazaspiro[4.5]decan-8-yl}ethyl)phenyl]-1H-pyrrolo[2,3-b]pyridine-3-carbonyl}-2,4-difluorophenyl)-3-fluoropyrrolidine-1-sulfonamide], for which, on BRAF V600E, the DC50 (commonly the midpoint of the concentration-degradation curve) lay in the range of 0.005 to 0.05 µM and the Dmax (as a rule, the largest share of the target that was removed) lay within 35 to 70%. In addition, at BRAF G466V, the DC50 is less than 0.001 µM and the Dmax fell in the range of 35 to 70%.

Take `O=C1CCC(N2Cc3cc(N4CCC(CN5CCN(c6ccc(-c7cnc8[nH]cc(C(=O)c9c(F)ccc(NS(=O)(=O)N%10CC[C@@H](F)C%10)c9F)c8c7)cc6F)CC5)CC4)ccc3C2=O)C(=O)N1` (stereo partly drawn) [Compound 11, (3R)-N-[3-(5-{4-[4-({1-[2-(2,6-dioxopiperidin-3-yl)-1-oxo-2,3-dihydro-1H-isoindol-5-yl]piperidin-4-yl}methyl)piperazin-1-yl]-3-fluorophenyl}-1H-pyrrolo[2,3-b]pyridine-3-carbonyl)-2,4-difluorophenyl]-3-fluoropyrrolidine-1-sulfonamide]: the values for the DC50 on BRAF V600E and at BRAF G466V were 0.005 to 0.05 µM and less than 0.001 µM, respectively. Also, the maximal degradation (Dmax) on BRAF V600E and on BRAF G466V was 35 to 70% each time.

`COc1cc(N2CC3(C2)CN(CC2CCN(c4ccc(-c5cnc6[nH]cc(C(=O)c7c(F)ccc(NS(=O)(=O)N8CC[C@@H](F)C8)c7F)c6c5)cc4)CC2)[C@H]3C)cc2c1C(=O)N(C1CCC(=O)NC1=O)C2` (stereo partly drawn) [Compound 12, (3R)-N-(3-{5-[4-(4-{[(1S)-6-[2-(2,6-dioxopiperidin-3-yl)-7-methoxy-1-oxo-2,3-dihydro-1H-isoindol-5-yl]-1-methyl-2,6-diazaspiro[3.3]heptan-2-yl]methyl}piperidin-1-yl)phenyl]-1H-pyrrolo[2,3-b]pyridine-3-carbonyl}-2,4-difluorophenyl)-3-fluoropyrrolidine-1-sulfonamide]: at BRAF V600E, the 50% degradation concentration (DC50) is 0.005 to 0.05 µM and the Dmax is more than 70%. Further, at BRAF G466V, the half-maximal degradation concentration (DC50) is 0.001 to 0.01 µM and the maximal degradation (Dmax) is 35 to 70%.

`O=C1CCC(N2Cc3cc(O[C@H]4C[C@@]5(COCCN5CC5CCN(c6ccc(-c7cnc8[nH]cc(C(=O)c9c(F)ccc(NS(=O)(=O)N%10CC[C@@H](F)C%10)c9F)c8c7)cc6)CC5)C4)ccc3C2=O)C(=O)N1` (stereo partly drawn) [Compound 13, (3R)-N-(2,4-difluoro-3-{5-[4-(4-{[(2r,4r)-2-{[2-(2,6-dioxopiperidin-3-yl)-1-oxo-2,3-dihydro-1H-isoindol-5-yl]oxy}-8-oxa-5-azaspiro[3.5]nonan-5-yl]methyl}piperidin-1-yl)phenyl]-1H-pyrrolo[2,3-b]pyridin-3-carbonyl}phenyl)-3-fluoropyrrolidine-1-sulfonamide]: the half-maximal degradation concentration (DC50) was more than 0.5 µM at BRAF V600E and 0.01 to 0.03 µM on BRAF G466V. Further, the Dmax on BRAF V600E was more than 70%; at BRAF G466V, 35 to 70%.

With `O=C1CCC(N2Cc3cc(O[C@H]4C[C@]5(COCCN5CC5CCN(c6ccc(-c7cnc8[nH]cc(C(=O)c9c(F)ccc(NS(=O)(=O)N%10CC[C@@H](F)C%10)c9F)c8c7)cc6)CC5)C4)ccc3C2=O)C(=O)N1` (stereo partly drawn) [Compound 14, (3R)-N-(2,4-difluoro-3-{5-[4-(4-{[(2s,4s)-2-{[2-(2,6-dioxopiperidin-3-yl)-1-oxo-2,3-dihydro-1H-isoindol-5-yl]oxy}-8-oxa-5-azaspiro[3.5]nonan-5-yl]methyl}piperidin-1-yl)phenyl]-1H-pyrrolo[2,3-b]pyridine-3-carbonyl}phenyl)-3-fluoropyrrolidine-1-sulfonamide], on BRAF V600E, the DC50 is more than 0.5 µM and the Dmax is 35 to 70%. At BRAF G466V, the maximal degradation (Dmax) is less than 35%.

Regarding `O=C1CCC(N2Cc3cc(N4CC[C@@H]4COc4ccc(-c5cnc6[nH]cc(C(=O)c7c(F)ccc(NS(=O)(=O)N8CC[C@@H](F)C8)c7F)c6c5)cc4)ccc3C2=O)C(=O)N1` (stereo partly drawn) [Compound 15, (3R)-N-{3-[5-(4-{[(2R)-1-[2-(2,6-dioxopiperidin-3-yl)-1-oxo-2,3-dihydro-1H-isoindol-5-yl]azetidin-2-yl]methoxy}phenyl)-1H-pyrrolo[2,3-b]pyridine-3-carbonyl]-2,4-difluorophenyl}-3-fluoropyrrolidine-1-sulfonamide], the half-maximal degradation concentration (DC50) at BRAF V600E is more than 0.5 µM; at BRAF G466V, more than 0.03 µM.

For the compound `O=C1CCC(N2Cc3cc(N4CCC(N5C[C@@H]6C[C@H]5CN(c5ccc(-c7cnc8[nH]cc(C(=O)c9c(F)ccc(NS(=O)(=O)N%10CC[C@@H](F)C%10)c9F)c8c7)cc5)C6)CC4)ccc3C2=O)C(=O)N1` (stereo partly drawn) [Compound 16, (3R)-N-[3-(5-{4-[(1S,5S)-6-{1-[2-(2,6-dioxopiperidin-3-yl)-1-oxo-2,3-dihydro-1H-isoindol-5-yl]piperidin-4-yl}-3,6-diazabicyclo[3.2.1]octan-3-yl]phenyl}-1H-pyrrolo[2,3-b]pyridine-3-carbonyl)-2,4-difluorophenyl]-3-fluoropyrrolidine-1-sulfonamide], at BRAF V600E, the half-maximal degradation concentration (DC50) fell in the range of 0.05 to 0.5 µM and the Dmax lay within 35 to 70%. In addition, on BRAF G466V, the 50% degradation concentration (DC50) lay within 0.001 to 0.01 µM and the maximal degradation (Dmax) is 35 to 70%.

Take `O=C1CCC(N2Cc3cc(OC[C@@H]4CCN4c4ccc(-c5cnc6[nH]cc(C(=O)c7c(F)ccc(NS(=O)(=O)N8CC[C@@H](F)C8)c7F)c6c5)cc4)ccc3C2=O)C(=O)N1` (stereo partly drawn) [Compound 17, (3R)-N-[3-(5-{4-[(2S)-2-({[2-(2,6-dioxopiperidin-3-yl)-1-oxo-2,3-dihydro-1H-isoindol-5-yl]oxy}methyl)azetidin-1-yl]phenyl}-1H-pyrrolo[2,3-b]pyridine-3-carbonyl)-2,4-difluorophenyl]-3-fluoropyrrolidine-1-sulfonamide]: the half-maximal degradation concentration (DC50) at BRAF V600E is more than 0.5 µM; at BRAF G466V, more than 0.03 µM.
